The values below come from US10473666B2, “Dye compounds” (SFC CO., LTD., priority 2015, dated 2019).

Data set [1] concerns HeLa A431 cells. The data set can be described thus: Photostability: fluorescence intensity over time in stained HeLa A431 cells. The format is cell-based. The conditions noted are these: HeLa A431 cells stained with 1.0 μM dye. The method, then: The fluorescence intensities of three areas A, B, and C of HeLa A431 cells stained with the compound of Formula 110 (1.0 μM) were measured at 2-sec intervals for 3500 sec.
The fluorescence intensities of four areas A, B, C, and D of HeLa A431 cells stained with the compound of Formula 98 (1.0 μM) were measured at 2-sec intervals for 3500 sec.
The fluorescence intensities of two areas A and B of HeLa A431 cells stained with Cy3B (1.0 μM) were measured at intervals of 2 s for 2000 s.

Data set [2] is described as follows: Absorption spectra, emission spectra, molar extinction coefficients and quantum yields of the dye compounds. The format is physicochemical. The conditions noted are these: Table 1; solvent DMSO. The method, then:
Absorption spectra (λabs), emission spectra (λem), molar extinction coefficients (ε), and quantum yields of the compounds of Formulae 1-7 were measured and the results are shown in Table 1.
Absorption spectra (λabs), emission spectra (λem), molar extinction coefficients, and quantum yields of the compounds of Formulae 44-53 were measured and the results are shown in Table 4.
The products of the two factors (molar extinction coefficient×fluorescence quantum yield) for the inventive dye compounds were much greater than that for the comparative compound.

Data set [3] relates to goat anti-mouse IgG. The data set can be described thus: Absorption and fluorescence emission spectra of goat anti-mouse IgG labeled with the dye. As to the method: Goat anti-mouse IgG was labeled with Alexa Fluor® 568 (Thermo Fisher Scientific) and the compound of Formula 1 and their absorption spectra and fluorescence emission spectra were recorded.
FIG. 1a is an absorption spectrum of goat anti-mouse IgG labeled with the compound of Formula 1, FIG. 1b is an absorption spectrum of goat anti-mouse IgG labeled with Alexa Fluor® 568, FIG. 1c is a fluorescence emission spectrum of goat anti-mouse IgG labeled with the compound of Formula 1, and FIG. 1d is a fluorescence emission spectrum of goat anti-mouse IgG labeled with Alexa Fluor® 568.
Goat anti-mouse IgG was labeled with Alexa Fluor® 594 (Thermo Fisher Scientific) and the compound of Formula 3 and their absorption spectra and fluorescence emission spectra were recorded.
FIG. 2a is an absorption spectrum of goat anti-mouse IgG labeled with the compound of Formula 3, FIG. 2b is an absorption spectrum of goat anti-mouse IgG labeled with Alexa Fluor® 594, FIG. 2c is a fluorescence emission spectrum of goat anti-mouse IgG labeled with the compound of Formula 3, and FIG. 2d is a fluorescence emission spectrum of goat anti-mouse IgG labeled with Alexa Fluor® 594.

The subject of data set [4] is IgG from mouse serum (primary). The data set can be described thus: FLISA plate fluorescence (bioactivity) of dye-conjugated secondary antibody on coated primary IgG. The format is binding. The conditions noted are these: for D/P ratio at which the dye-secondary antibody was conjugated to the primary antibody with the highest efficiency: dye-conjugated goat anti-mouse IgG on IgG from mouse serum; for Fluorescence: dye-conjugated goat anti-mouse IgG. As to the method: 1. IgG from mouse serum (primary) was dissolved to a concentration of 10 μg/ml in coating buffer.
2. 100 μl of the solution was divided into each well of a FLISA H/B black corning plate.
3. After top sealing, the plate was incubated in the dark at room temperature for 2 h.
4. Each well was washed three times with 300 μl of washing buffer.
5. 300 μl of blocking buffer was placed into each well. After top sealing, the plate was incubated in the dark at room temperature for 1 h.
6. After removal of the blocking buffer, the wells were washed three times with washing buffer.
7. 100 μl of a dye-conjugated secondary antibody (10 μg/ml) was placed into each well. After top sealing, the plate was incubated in the dark at room temperature for 1 h.
8. After removal of the solution, each well was washed three times with 200 μl of washing buffer.
9. 100 μl of PBS was placed into each sample-containing well.
10. Fluorescence was measured with a microplate reader.
The procedure of Experimental Example 4 was repeated except that the compound of Formula 3 was used.
The procedure of Experimental Example 4 was repeated except that the compound of Formula 50 was used.

Data set [5] is described as follows: Absorption spectra, emission spectra, molar extinction coefficients and quantum yields of the dye compounds. The format is physicochemical.
Data set [6] has as its system mitochondria, Raw 264.7 cells. The data set can be described thus: Selectivity for mitochondria: co-localization with MitoTracker Green FM in Raw 264.7 cells. The format is cell-based. The conditions noted are these: dye 1 μM. As to the method:
The specific selectivity of the compound of Formula 110 for mitochondria was investigated. To this end, Raw 264.7 cells were co-localized with the compound of Formula 110 and a commercially available mitochondrial marker (MTG, 1 μM MitoTracker Green FM for mitochondria).
OPM images were acquired at 560-600 nm (Formula 110, λex=552 nm) and 470-520 nm (MTG, λex=488 nm) and are shown in FIGS. 4a and 4b, respectively. FIG. 4c is a merged image of FIGS. 4a and 4b. The Pearson's co-localization coefficient (A) was calculated using the LAS AF software. [MTG]=1μM for 30 min incubation,λex=488 nm [Formula 110]=1μM for 30 min incubation,λex=552 nm

Data set [7] can be described thus: Characterization as pH probes: fluorescence intensity versus pH. The format is physicochemical. The source says: In addition, the absorption and fluorescence wavelengths of the compound of Formula 97 well match currently available laser lines (488 nm, 532 nm, and 550 nm).
That is, the compound of Formula 111 as a pH probe emitted strong fluorescence at pH 2-6 and the compound of Formula 97 as a pH probe emitted strong fluorescence at pH 8-12.

[8] abbreviates: dye-conjugated secondary antibody, plate fluorescence.
Where [9] appears, read: measured at 2-sec intervals for 3500 sec.

With `CC1(C)C2=C3C=C4C5=[N+](CCC4OC3CCN2c2ccccc21)c1ccccc1C5(C)C` (centres unmarked) [Cy3B, reference compound], in data set [1], the photostability entry was “poor photostability”. Besides, the “change of fluorescence intensity over time” value (“change” below) in data set [1] (measured at intervals of 2 s for 2000 s) was “greatly reduced for 1500 s”.

Turning to `CC1(CCCCCC(=O)O)C2=[N+](CCC3Oc4cc(N(CCCS(=O)(=O)O)CCCS(=O)(=O)O)ccc4C=C23)c2ccc(S(=O)(=O)[O-])cc21` (centres unmarked) [Formula 1], in data set [2], the “Q.Y. (quantum yield)” value is 0.91 and the λabs was 584 nm. Further, in data set [3], the “aggregation compared with the Alexa Fluor dye” value is reported as “less aggregated than Alexa Fluor® 568” and the “fluorescence emission intensity compared with the Alexa Fluor dye” value is given as “higher than that of Alexa Fluor® 568”. In addition, the “D/P ratio at which the dye-secondary antibody was conjugated to the primary antibody with the highest efficiency” value in data set [4] is on record as ~4.8. Moreover, in data set [4] (D/P ratio 2.202771), the Fluorescence is 104.026. For the same compound, the Fluorescence in data set [4] (D/P ratio 4.888795) came out at 127.5422. Further, the Fluorescence in data set [4] (D/P ratio 8.141409) stood at 95.4. Further, in data set [4] (D/P ratio 11.30465), the Fluorescence turned out to be 91.8519. In data set [4] (D/P ratio 12.45994), the Fluorescence worked out at 75.1. For the same compound, in data set [4] (setting [8]), the “bioactivity compared with the Alexa Fluor dye” value is “better bioactivity than Alexa Fluor® 568” and the “brightness values compared with the Alexa Fluor dye” value is on record as “much higher than those of Alexa Fluor® 568”. Besides, in data set [5] (Table 1, solvent DMSO), the “ε (molar extinction coefficient)” value was 66,000 M^−1cm^−1 and the λem came to 617 nm.

On to `CC1(CCCCCC(=O)O)C2=[N+](CCC3Oc4c(cc5c6c4CCCN6CCC5)C=C23)c2ccccc21` (centres unmarked) [Formula 2], for which, in data set [2], the “Q.Y. (quantum yield)” value is 0.94 and the λabs is on record as 597 nm. Besides, in data set [5] (Table 1, solvent DMSO), the “ε (molar extinction coefficient)” value is listed as 71,500 M^−1cm^−1 and the λem turned out to be 623 nm.

Consider `CC1(CCCCCC(=O)O)C2=[N+](CCC3Oc4cc5c(cc4C=C23)C(CS(=O)(=O)O)CC(C)(C)N5CCCS(=O)(=O)O)c2ccc(S(=O)(=O)[O-])cc21` (centres unmarked) [Formula 3], for which, in data set [2], the “Q.Y. (quantum yield)” value is listed as 0.87. This compound also displayed a λabs in data set [2] of 595 nm. Moreover, the “fluorescence emission intensity compared with the Alexa Fluor dye” value in data set [3] is reported as “higher than that of Alexa Fluor® 594”. For the same compound, in data set [4], the “D/P ratio at which the dye-secondary antibody was conjugated to the primary antibody with the highest efficiency” value is ~3.4. The Fluorescence in data set [4] (D/P ratio 2.54) came out at 64.89; in data set [4] (D/P ratio 3.47) it was 83.79; in data set [4] (D/P ratio 4.86), 78.61; in data set [4] (D/P ratio 5.18), 80.28; in data set [4] (D/P ratio 5.95) it was 68.06. Besides, the “bioactivity compared with the Alexa Fluor dye” value in data set [4] (setting [8]) was “better bioactivity than Alexa Fluor® 594”. Besides, the “brightness values compared with the Alexa Fluor dye” value in data set [4] (when the D/P ratio was ≥5) is “much higher than those of Alexa Fluor® 594”. The “ε (molar extinction coefficient)” value in data set [5] (Table 1, solvent DMSO) is 64,000 M^−1cm^−1. In data set [5] (Table 1, solvent DMSO), the λem is given as 624 nm.

For `CN(CCCCCC(=O)O)c1ccc2c(c1)OC1CC[N+]3=C(C1=C2)C(C)(C)c1cc(S(=O)(=O)CC(S(=O)(=O)[O-])S(=O)(=O)O)ccc13` (centres unmarked) [Formula 4], in data set [2], the “Q.Y. (quantum yield)” value came out at 0.81 and the λabs is reported as 584 nm. In data set [5] (Table 1, solvent DMSO), the “ε (molar extinction coefficient)” value was 76,000 M^−1cm^−1 and the λem turned out to be 614 nm.

With `CC1(C)C2=[N+](CCC3Oc4cc5c(cc4C=C23)C(CS(=O)(=O)O)=CC(C)(C)N5CCCCCC(=O)O)c2ccc(S(=O)(=O)[O-])cc21` (centres unmarked) [Formula 5], in data set [2], the “Q.Y. (quantum yield)” value amounted to 0.56 and the λabs turned out to be 617 nm. Besides, in data set [5] (Table 1, solvent DMSO), the “ε (molar extinction coefficient)” value was 65,000 M^−1cm^−1 and the λem is listed as 659 nm.

`CC1(C)CCN(CCCCCC(=O)O)c2ccc3c(c21)OC1CC[N+]2=C(C1=C3)C(C)(C)c1ccccc12` (centres unmarked) [Formula 6]: in data set [2], the “Q.Y. (quantum yield)” value is 0.72 and the λabs turned out to be 579 nm. Moreover, in data set [5] (Table 1, solvent DMSO), the “ε (molar extinction coefficient)” value was 12,800 M^−1cm^−1 and the λem is on record as 612 nm.

With `CC1(C)CCN(CCCCCC(=O)O)c2cc3c(cc21)C=C1C2=[N+](CCC1O3)c1ccccc1C2(C)C` (centres unmarked) [Formula 7], in data set [2], the “Q.Y. (quantum yield)” value worked out at 1.00 and the λabs is on record as 584 nm. Besides, in data set [5] (Table 1, solvent DMSO), the “ε (molar extinction coefficient)” value is listed as 60,000 M^−1cm^−1 and the λem was 615 nm.

In the case of `CCN(CC)c1ccc2c(c1)OC1CC[N+]3=C(C1=C2)C(C)(C)c1ccccc13` (centres unmarked) [Formula 98], in data set [1], the photostability result is “good photostability”. Further, in data set [1] (setting [9]), the “change” value was “no substantial decreases in fluorescence intensity for 1 h”. For the same compound, in data set [5] (Table 6, solvent DMSO), the Quantum yield was 0.77, the “ε (molar extinction coefficient)” value is 57,000 M^−1cm^−1, the λabs is listed as 570 nm and the λem is reported as 601 nm. In data set [5] (Table 6, solvent EtOH), the Quantum yield turned out to be 0.78, the “ε (molar extinction coefficient)” value is listed as 64,000 M^−1cm^−1, the λabs is recorded as 570 nm and the λem is on record as 596 nm. Moreover, in data set [5] (Table 6, solvent PBS), the Quantum yield came to 0.51, the “ε (molar extinction coefficient)” value is 57,000 M^−1cm^−1, the λabs amounted to 565 nm and the λem stood at 595 nm.

As to `CNc1ccc2c(c1)OC1CC[N+]3=C(C1=C2)C(C)(C)c1ccccc13` (centres unmarked) [Formula 110], in data set [6], the “staining selectivity for mitochondria” value is on record as “mitochondria were predominantly stained”. Further, the “degree of overlapping (A), Pearson's co-localization coefficient with Mitotracker Green FM” value in data set [6] (MTG 1 μM, 30 min incubation, LAS AF software) is on record as 0.73. In data set [1], the photostability entry is “good photostability”. In data set [1] (setting [9]), the “change” value is “no substantial decreases in fluorescence intensity for 1 h”. Also, in data set [5] (Table 6, solvent DMSO), the Quantum yield amounted to 0.86, the “ε (molar extinction coefficient)” value is 37,000 M^−1cm^−1, the λabs came to 561 nm and the λem turned out to be 597 nm. Further, in data set [5] (Table 6, solvent EtOH), the Quantum yield stood at 0.80, the “ε (molar extinction coefficient)” value was 50,000 M^−1cm^−1, the λabs came to 558 nm and the λem was 584 nm. For the same compound, in data set [5] (Table 6, solvent PBS), the Quantum yield is recorded as 0.78, the “ε (molar extinction coefficient)” value is 37,000 M^−1cm^−1, the λabs is on record as 550 nm and the λem worked out at 579 nm.

For `CC1(C)C2=[N+](CCC3Oc4cc(N5CCN(CCCCCC(=O)O)CC5)ccc4C=C23)c2ccccc21` (centres unmarked) [Formula 111], the “pH at which the pH probe emitted strong fluorescence” value in data set [7] was 2-6 pH. For the same compound, the “fluorescence intensity under acidic conditions” value in data set [7] (pH 1-6) is listed as “increased”. Further, the “fluorescence intensity under basic conditions” value in data set [7] (pH 9-12) is “decreased”. Further, in data set [5] (Table 6, solvent PBS (pH 7.4)), the Quantum yield came out at 0.53, the “ε (molar extinction coefficient)” value is given as 55,000 M^−1cm^−1, the λabs came out at 530 nm and the λem is listed as 585 nm.
